Measurements as given in ChEMBL document CHEMBL1153799, “Synthesis of sialic acid derivatives having a C=C double bond substituted at the C-5 position and their glycopolymers” (Bioorg Med Chem Lett, 2009).
The source made the active and inactive calls.

Columns and labels:
Assay type in all cases: functional, organism-based
[1] = test system: Influenza A virus; assay: Inhibition of human Influenza virus A/PR/8/34 (H1N1)-mediated hemagglutinination of erythrocytes; conditions: A/Puerto Rico/8/1934(H1N1)
[2] = test system: Influenza A virus; assay: Inhibition of duck Influenza A virus A/DK/HK/313/78(H5N3)-mediated hemagglutinination of erythrocytes
[3] = test system: H3N2 subtype; assay: Inhibition of human Influenza virus A/Aichi/2/68(H3N2)-mediated hemagglutinination of erythrocytes; conditions: A/Aichi/2/1968(H3N2)

Measured: Activity

C=CC(=O)NCCCCCC(=O)N[C@H]1[C@H]([C@H](O)[C@H](O)CO)O[C@](SCCCCCCCCCCCC)(C(=O)O)C[C@@H]1O
active: all assays above

C=CC(=O)NCC(=O)N[C@H]1[C@H]([C@H](O)[C@H](O)CO)O[C@](SCCCCCCCCCCCC)(C(=O)O)C[C@@H]1O
active: all assays above
